In BindingDB's records for doi:10.1016/S0960-894X(01)80724-1 (1993) one finds IC50 data, which are given here for eight compounds.

What is called IC50 is the concentration that gives 50% inhibition. A low value points to inhibition by little substance.

For the assay, the target named is Squalene synthase (Candida albicans). Description: Inhibition of Candida albicans squalene synthase(SQS).
Regarding `C=C(CC[C@]12O[C@H](C(=O)O)[C@@](O)(C(=O)O)[C@](C(=O)O)(O1)[C@H](O)[C@H]2OC(=O)OC)[C@@H](OC(C)=O)[C@H](C)Cc1ccccc1` [(1S,3S,4S,5R,6R,7R)-1-((4S,5R)-4-Acetoxy-5-methyl-3-methylene-6-phenyl-hexyl)-4,6-dihydroxy-7-methoxycarbonyloxy-2,8-dioxa-bicyclo[3.2.1]octane-3,4,5-tricarboxylic acid], the IC50 is over 200 nM. The figure for `C=C(CC[C@]12O[C@H](C(=O)O)[C@@](O)(C(=O)O)[C@](C(=O)O)(O1)[C@H](O)[C@H]2OC(=O)CCCCCCC)[C@@H](OC(C)=O)[C@H](C)Cc1ccccc1` [(1S,3S,4S,5R,6R,7R)-1-((4S,5R)-4-Acetoxy-5-methyl-3-methylene-6-phenyl-hexyl)-4,6-dihydroxy-7-octanoyloxy-2,8-dioxa-bicyclo[3.2.1]octane-3,4,5-tricarboxylic acid] is over 200 nM; for `C=C(CC[C@]12O[C@H](C(=O)O)[C@@](O)(C(=O)O)[C@](C(=O)O)(O1)[C@H](OC(=O)CCCCCCc1ccccc1)[C@H]2O)[C@@H](OC(C)=O)[C@H](C)Cc1ccccc1` [(1S,3S,4S,5R,6R,7R)-1-((4S,5R)-4-Acetoxy-5-methyl-3-methylene-6-phenyl-hexyl)-4,7-dihydroxy-6-(7-phenyl-heptanoyloxy)-2,8-dioxa-bicyclo[3.2.1]octane-3,4,5-tricarboxylic acid] it is 7 nM; for `C=C(CC[C@]12O[C@H](C(=O)O)[C@@](O)(C(=O)O)[C@](C(=O)O)(O1)[C@H](OC(=O)/C=C/c1ccccc1)[C@H]2O)[C@@H](OC(C)=O)[C@H](C)Cc1ccccc1` [(1S,3S,4S,5R,6R,7R)-1-((4S,5R)-4-Acetoxy-5-methyl-3-methylene-6-phenyl-hexyl)-4,7-dihydroxy-6-[(E)-(3-phenyl-acryloyl)oxy]-2,8-dioxa-bicyclo[3.2.1]octane-3,4,5-tricarboxylic acid] it is 10 nM. `C=C(CC[C@]12O[C@H](C(=O)O)[C@@](O)(C(=O)O)[C@](C(=O)O)(O1)[C@H](OC(=O)OCCCCCCCCC)[C@H]2O)[C@@H](OC(C)=O)[C@H](C)Cc1ccccc1` [(1S,3S,4S,5R,6R,7R)-1-((4S,5R)-4-Acetoxy-5-methyl-3-methylene-6-phenyl-hexyl)-4,7-dihydroxy-6-nonyloxycarbonyloxy-2,8-dioxa-bicyclo[3.2.1]octane-3,4,5-tricarboxylic acid]: 2 nM corresponded to half-maximal inhibition (IC50). Compared with the last compound, the IC50 is about 5-fold lower. The figure for `C=C(CC[C@]12O[C@H](C(=O)O)[C@@](O)(C(=O)O)[C@](C(=O)O)(O1)[C@H](OC(=O)CCCCCCC)[C@H]2OC(=O)CCCCCCC)[C@@H](OC(C)=O)[C@H](C)Cc1ccccc1` [(1S,3S,4S,5R,6R,7R)-1-((4S,5R)-4-Acetoxy-5-methyl-3-methylene-6-phenyl-hexyl)-4-hydroxy-6,7-bis-octanoyloxy-2,8-dioxa-bicyclo[3.2.1]octane-3,4,5-tricarboxylic acid] is over 200 nM; for `C=C(CC[C@]12O[C@H](C(=O)O)[C@@](O)(C(=O)O)[C@](C(=O)O)(O1)[C@H](OC(=O)OCCCC)[C@H]2O)[C@@H](OC(C)=O)[C@H](C)Cc1ccccc1` [(1S,3S,4S,5R,6R,7R)-1-((4S,5R)-4-Acetoxy-5-methyl-3-methylene-6-phenyl-hexyl)-6-butoxycarbonyloxy-4,7-dihydroxy-2,8-dioxa-bicyclo[3.2.1]octane-3,4,5-tricarboxylic acid] it is 8 nM. In turn, `C=C(CC[C@]12O[C@H](C(=O)O)[C@@](O)(C(=O)O)[C@](C(=O)O)(O1)[C@H](O)[C@H]2OC(C)=O)[C@@H](OC(C)=O)[C@H](C)Cc1ccccc1` [(1S,3S,4S,5R,6R,7R)-7-Acetoxy-1-((4S,5R)-4-acetoxy-5-methyl-3-methylene-6-phenyl-hexyl)-4,6-dihydroxy-2,8-dioxa-bicyclo[3.2.1]octane-3,4,5-tricarboxylic acid] showed an IC50 of over 200 nM.
